From patent US20260356819A1, “OXOISOINDOLINYL-SUBSTITUTED […] DERIVATIVE AND USE THEREOF” (GLUETACS THERAPEUTICS (SHANGHAI) CO., LTD., priority 2023, published 2026)

Key:
Type in all cases: cell-based
Settings in all cases: compounds at 50 nM and 500 nM
WEE1 = molecular target: T1, WEE1 (Homo sapiens, UniProt P30291+Q96SW2); assay: Western blot degradation of WEE1 in hPBMCs (24 h)
T1 construct: The supernatant was aspirated as the extracted total cell protein; endogenous in cells; host or cells: human peripheral blood mononuclear cells (hPBMCs)
Method in brief: (§1)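 Thawed human PBMCs, 1×10^6 cells/mL; cpd 50 nM or 500 nM, 24 h; RIPA lysis, BCA, SDS-PAGE, NC transfer, immunoblot. Readout: grayscale/internal control → % remaining; degradation = 1 − remaining.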

IKZF1 = molecular target: T2, IKZF1 (Homo sapiens, UniProt Q13422+Q96SW2); assay: Western blot degradation of IKZF1 in hPBMCs (24 h)
T2 construct: The supernatant was aspirated as the extracted total cell protein; endogenous in cells; host or cells: human peripheral blood mononuclear cells (hPBMCs)
Method in brief: as §1

IKZF2 = molecular target: T3, IKZF2 (Homo sapiens, UniProt Q96SW2+Q9UKS7); assay: Western blot degradation of IKZF2 in hPBMCs (24 h)
T3 construct: The supernatant was aspirated as the extracted total cell protein; endogenous in cells; host or cells: human peripheral blood mononuclear cells (hPBMCs)
Method in brief: as §1

IKZF3 = molecular target: T4, IKZF3 (Homo sapiens, UniProt Q96SW2+Q9UKT9); assay: Western blot degradation of IKZF3 in hPBMCs (24 h)
T4 construct: The supernatant was aspirated as the extracted total cell protein; endogenous in cells; host or cells: human peripheral blood mononuclear cells (hPBMCs)
Method in brief: as §1

CK1α = molecular target: T5, CK1α (Homo sapiens, UniProt P48729+Q96SW2); assay: Western blot degradation of CK1α in hPBMCs (24 h)
T5 construct: The supernatant was aspirated as the extracted total cell protein; endogenous in cells; host or cells: human peripheral blood mononuclear cells (hPBMCs)
Method in brief: as §1

GSPT1 = molecular target: T6, GSPT1 (Homo sapiens, UniProt P15170+Q96SW2); assay: Western blot degradation of GSPT1 in hPBMCs (24 h)
T6 construct: The supernatant was aspirated as the extracted total cell protein; endogenous in cells; host or cells: human peripheral blood mononuclear cells (hPBMCs)
Method in brief: as §1

T6 sequence (P15170 whole entry): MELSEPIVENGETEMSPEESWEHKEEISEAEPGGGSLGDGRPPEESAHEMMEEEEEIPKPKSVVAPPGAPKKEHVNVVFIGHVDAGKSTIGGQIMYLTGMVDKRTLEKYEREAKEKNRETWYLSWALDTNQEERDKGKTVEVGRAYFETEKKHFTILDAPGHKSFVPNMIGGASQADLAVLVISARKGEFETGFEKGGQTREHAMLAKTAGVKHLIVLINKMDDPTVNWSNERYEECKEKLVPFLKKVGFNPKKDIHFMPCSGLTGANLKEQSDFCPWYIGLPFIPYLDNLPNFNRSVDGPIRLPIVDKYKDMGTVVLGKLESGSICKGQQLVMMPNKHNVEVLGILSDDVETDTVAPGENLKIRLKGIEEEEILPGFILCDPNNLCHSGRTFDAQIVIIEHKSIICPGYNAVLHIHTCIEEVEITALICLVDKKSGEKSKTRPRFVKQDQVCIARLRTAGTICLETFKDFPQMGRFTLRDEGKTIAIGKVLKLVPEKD
T6 sequence (Q96SW2 whole entry): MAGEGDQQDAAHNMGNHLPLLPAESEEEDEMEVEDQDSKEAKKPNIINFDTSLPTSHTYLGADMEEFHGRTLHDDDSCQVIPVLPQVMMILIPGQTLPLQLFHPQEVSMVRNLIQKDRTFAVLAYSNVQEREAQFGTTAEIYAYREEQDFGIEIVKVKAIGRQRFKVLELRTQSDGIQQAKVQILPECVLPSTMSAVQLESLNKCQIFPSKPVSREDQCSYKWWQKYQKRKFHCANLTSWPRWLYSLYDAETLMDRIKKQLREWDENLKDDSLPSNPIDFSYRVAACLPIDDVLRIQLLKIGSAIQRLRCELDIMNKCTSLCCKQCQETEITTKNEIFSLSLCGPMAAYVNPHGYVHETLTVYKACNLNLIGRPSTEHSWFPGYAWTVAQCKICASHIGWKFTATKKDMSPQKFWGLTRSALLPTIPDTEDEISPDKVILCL
T6 sequence (Q16531 whole entry partner): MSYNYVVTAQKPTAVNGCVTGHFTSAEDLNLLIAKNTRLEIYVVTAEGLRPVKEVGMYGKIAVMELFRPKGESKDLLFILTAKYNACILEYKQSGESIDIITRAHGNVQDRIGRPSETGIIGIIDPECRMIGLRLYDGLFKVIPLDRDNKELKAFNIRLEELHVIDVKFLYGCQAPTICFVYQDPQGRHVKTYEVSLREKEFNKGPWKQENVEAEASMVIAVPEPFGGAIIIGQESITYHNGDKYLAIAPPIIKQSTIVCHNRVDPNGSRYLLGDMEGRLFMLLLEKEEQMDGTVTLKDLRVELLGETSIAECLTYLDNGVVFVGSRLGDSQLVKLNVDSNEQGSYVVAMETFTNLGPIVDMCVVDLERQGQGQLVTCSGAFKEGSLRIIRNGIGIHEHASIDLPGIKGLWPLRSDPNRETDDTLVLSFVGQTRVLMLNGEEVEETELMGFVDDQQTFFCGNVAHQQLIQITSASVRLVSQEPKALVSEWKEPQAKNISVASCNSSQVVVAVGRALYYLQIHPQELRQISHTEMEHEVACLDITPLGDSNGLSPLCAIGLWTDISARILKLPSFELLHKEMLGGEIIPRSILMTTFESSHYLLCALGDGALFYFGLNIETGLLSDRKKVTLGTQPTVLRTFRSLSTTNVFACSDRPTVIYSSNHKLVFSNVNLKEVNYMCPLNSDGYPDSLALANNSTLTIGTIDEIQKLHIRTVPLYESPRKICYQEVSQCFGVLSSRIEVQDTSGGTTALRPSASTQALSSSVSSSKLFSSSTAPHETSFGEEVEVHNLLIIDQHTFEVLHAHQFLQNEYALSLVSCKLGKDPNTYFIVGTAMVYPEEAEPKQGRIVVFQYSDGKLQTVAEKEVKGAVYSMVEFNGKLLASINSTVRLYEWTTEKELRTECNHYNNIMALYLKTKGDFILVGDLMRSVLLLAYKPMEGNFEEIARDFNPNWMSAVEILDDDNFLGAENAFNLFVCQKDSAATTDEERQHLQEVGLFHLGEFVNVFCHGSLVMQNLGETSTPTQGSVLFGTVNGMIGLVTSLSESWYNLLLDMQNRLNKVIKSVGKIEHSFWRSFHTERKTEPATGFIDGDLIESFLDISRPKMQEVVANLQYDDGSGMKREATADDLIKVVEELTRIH
T1 sequence (P30291 whole entry): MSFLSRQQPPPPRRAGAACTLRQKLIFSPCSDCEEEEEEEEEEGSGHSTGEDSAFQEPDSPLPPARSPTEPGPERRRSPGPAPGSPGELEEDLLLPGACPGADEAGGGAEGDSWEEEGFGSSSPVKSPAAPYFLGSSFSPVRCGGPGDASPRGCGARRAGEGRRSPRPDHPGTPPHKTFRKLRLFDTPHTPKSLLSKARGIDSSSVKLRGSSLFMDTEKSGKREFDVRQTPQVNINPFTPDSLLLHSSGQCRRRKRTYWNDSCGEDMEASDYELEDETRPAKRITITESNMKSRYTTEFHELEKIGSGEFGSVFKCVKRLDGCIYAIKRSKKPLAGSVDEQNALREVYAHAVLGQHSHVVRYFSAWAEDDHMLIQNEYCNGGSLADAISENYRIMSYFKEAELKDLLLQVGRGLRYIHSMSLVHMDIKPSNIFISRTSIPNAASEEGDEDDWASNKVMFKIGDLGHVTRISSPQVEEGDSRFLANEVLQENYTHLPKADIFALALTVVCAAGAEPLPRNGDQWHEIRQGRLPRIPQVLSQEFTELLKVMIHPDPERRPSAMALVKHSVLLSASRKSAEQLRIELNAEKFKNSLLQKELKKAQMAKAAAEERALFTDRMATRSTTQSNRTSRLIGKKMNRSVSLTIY
T1 sequence (Q96SW2 whole entry): as the sequence (Q96SW2 whole entry) above
T1 sequence (Q16531 whole entry partner): as the sequence (Q16531 whole entry partner) above
T3 sequence (Q9UKS7 whole entry): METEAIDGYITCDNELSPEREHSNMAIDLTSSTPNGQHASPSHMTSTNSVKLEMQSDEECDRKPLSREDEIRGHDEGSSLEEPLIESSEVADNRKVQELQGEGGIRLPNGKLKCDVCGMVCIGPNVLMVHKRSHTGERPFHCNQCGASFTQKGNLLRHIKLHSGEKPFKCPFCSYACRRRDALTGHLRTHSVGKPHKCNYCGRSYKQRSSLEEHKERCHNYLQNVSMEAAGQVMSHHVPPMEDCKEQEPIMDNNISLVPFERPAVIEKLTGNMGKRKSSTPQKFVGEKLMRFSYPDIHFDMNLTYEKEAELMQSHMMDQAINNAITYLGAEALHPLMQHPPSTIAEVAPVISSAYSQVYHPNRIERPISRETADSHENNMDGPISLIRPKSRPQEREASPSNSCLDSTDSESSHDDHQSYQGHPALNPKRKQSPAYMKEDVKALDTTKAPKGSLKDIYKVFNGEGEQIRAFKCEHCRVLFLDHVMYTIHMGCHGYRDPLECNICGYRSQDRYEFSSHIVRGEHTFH
T3 sequence (Q96SW2 whole entry): as the sequence (Q96SW2 whole entry) above
T3 sequence (Q16531 whole entry partner): as the sequence (Q16531 whole entry partner) above
T5 sequence (P48729 whole entry): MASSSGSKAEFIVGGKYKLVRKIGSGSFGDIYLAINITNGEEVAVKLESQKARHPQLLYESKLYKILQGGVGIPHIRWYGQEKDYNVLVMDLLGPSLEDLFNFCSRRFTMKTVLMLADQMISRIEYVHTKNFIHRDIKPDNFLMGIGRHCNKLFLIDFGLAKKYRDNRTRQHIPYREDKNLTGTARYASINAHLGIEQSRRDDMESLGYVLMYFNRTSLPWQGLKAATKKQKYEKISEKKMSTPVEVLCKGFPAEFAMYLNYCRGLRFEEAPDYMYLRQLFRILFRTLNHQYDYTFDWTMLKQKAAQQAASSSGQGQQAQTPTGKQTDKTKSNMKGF
T5 sequence (Q96SW2 whole entry): as the sequence (Q96SW2 whole entry) above
T5 sequence (Q16531 whole entry partner): as the sequence (Q16531 whole entry partner) above
T2 sequence (Q13422 whole entry): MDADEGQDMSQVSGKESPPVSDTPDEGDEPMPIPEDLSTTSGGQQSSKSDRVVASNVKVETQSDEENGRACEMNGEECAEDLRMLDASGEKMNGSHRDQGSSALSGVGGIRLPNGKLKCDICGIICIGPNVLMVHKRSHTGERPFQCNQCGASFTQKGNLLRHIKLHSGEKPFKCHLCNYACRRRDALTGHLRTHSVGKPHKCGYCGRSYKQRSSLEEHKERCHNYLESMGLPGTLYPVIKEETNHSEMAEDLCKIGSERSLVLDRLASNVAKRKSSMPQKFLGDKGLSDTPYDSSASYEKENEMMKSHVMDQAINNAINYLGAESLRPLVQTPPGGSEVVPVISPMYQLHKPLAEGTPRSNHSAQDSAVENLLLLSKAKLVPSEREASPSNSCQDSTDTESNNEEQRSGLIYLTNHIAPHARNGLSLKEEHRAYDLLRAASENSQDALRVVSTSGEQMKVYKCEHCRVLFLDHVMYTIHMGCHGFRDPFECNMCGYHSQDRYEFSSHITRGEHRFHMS
T2 sequence (Q96SW2 whole entry): as the sequence (Q96SW2 whole entry) above
T2 sequence (Q16531 whole entry partner): as the sequence (Q16531 whole entry partner) above

O=C1CCN(N2C(=O)c3ccc(CN4CCC(c5ncnc6sc7c(c56)CCCC7)CC4)cc3C2=O)C(=O)N1 [GT-08424, 2-(2,4-dioxotetrahydropyrimidin-1(2H)-yl)-5-((4-(5,6,7,8-tetrahydrobenzo[4,5]thieno[2,3-d]pyrimidin-4-yl)piperidin-1-yl)methyl)isoindoline-1,3-dione]
WEE1 substrate protein remaining % (WEE1): B (80%< substrate protein remaining % ≤100%)
IKZF1 substrate protein remaining % (IKZF1): B (80%< substrate protein remaining % ≤100%)
IKZF2 substrate protein remaining % (IKZF2): B (80%< substrate protein remaining % ≤100%)
IKZF3 substrate protein remaining % (IKZF3): B (80%< substrate protein remaining % ≤100%)
CK1α substrate protein remaining % (CK1α): A (0% ≤ substrate protein remaining % ≤80%)
GSPT1 substrate protein remaining % (GSPT1): A (0% ≤ substrate protein remaining % ≤80%)

O=C1CCN(N2C(=O)c3ccc(CN4CCC(c5ncc6ccsc6n5)CC4)cc3C2=O)C(=O)N1 [GT-08427, 2-(2,4-dioxotetrahydropyrimidin-1(2H)-yl)-5-((4-(thieno[2,3-d]pyrimidin-2-yl)piperidin-1-yl)methyl)isoindoline-1,3-dione]
WEE1 substrate protein remaining % (WEE1): A (0% ≤ substrate protein remaining % ≤80%)
IKZF1 substrate protein remaining % (IKZF1): B (80%< substrate protein remaining % ≤100%)
IKZF2 substrate protein remaining % (IKZF2): A (0% ≤ substrate protein remaining % ≤80%)
IKZF3 substrate protein remaining % (IKZF3): B (80%< substrate protein remaining % ≤100%)
CK1α substrate protein remaining % (CK1α): B (80%< substrate protein remaining % ≤100%)
GSPT1 substrate protein remaining % (GSPT1): B (80%< substrate protein remaining % ≤100%)

Cc1csc2ncnc(C3=CCN(Cc4ccc5c(c4)C(=O)N(N4CCC(=O)NC4=O)C5=O)CC3)c12 [GT-08428, 2-(2,4-dioxotetrahydropyrimidin-1(2H)-yl)-5-((4-(5-methylthieno[2,3-d]pyrimidin-4-yl)-3,6-dihydropyridin-1(2H)-yl)methyl)isoindoline-1,3-dione]
WEE1 substrate protein remaining % (WEE1): A (0% ≤ substrate protein remaining % ≤80%)
IKZF1 substrate protein remaining % (IKZF1): B (80%< substrate protein remaining % ≤100%)
IKZF2 substrate protein remaining % (IKZF2): A (0% ≤ substrate protein remaining % ≤80%)
IKZF3 substrate protein remaining % (IKZF3): A (0% ≤ substrate protein remaining % ≤80%)
CK1α substrate protein remaining % (CK1α): B (80%< substrate protein remaining % ≤100%)
GSPT1 substrate protein remaining % (GSPT1): B (80%< substrate protein remaining % ≤100%)

O=C1CCN(N2C(=O)c3ccc(CN4CC=C(c5ncnc6sc(-c7ccccc7)cc56)CC4)cc3C2=O)C(=O)N1 [GT-08430, 2-(2,4-dioxotetrahydropyrimidin-1(2H)-yl)-5-((4-(6-phenylthieno[2,3-d]pyrimidin-4-yl)-3,6-dihydropyridin-1(2H)-yl)methyl)isoindoline-1,3-dione]
WEE1 substrate protein remaining % (WEE1): A (0% ≤ substrate protein remaining % ≤80%)
IKZF1 substrate protein remaining % (IKZF1): B (80%< substrate protein remaining % ≤100%)
IKZF2 substrate protein remaining % (IKZF2): B (80%< substrate protein remaining % ≤100%)
IKZF3 substrate protein remaining % (IKZF3): B (80%< substrate protein remaining % ≤100%)
CK1α substrate protein remaining % (CK1α): B (80%< substrate protein remaining % ≤100%)
GSPT1 substrate protein remaining % (GSPT1): B (80%< substrate protein remaining % ≤100%)

O=C1CCN(N2C(=O)c3ccc(CN4CC=C(c5ncnc6scc(-c7ccccc7)c56)CC4)cc3C2=O)C(=O)N1 [GT-08431, 2-(2,4-dioxotetrahydropyrimidin-1(2H)-yl)-5-((4-(5-phenylthieno[2,3-d]pyrimidin-4-yl)-3,6-dihydropyridin-1(2H)-yl)methyl)isoindoline-1,3-dione]
WEE1 substrate protein remaining % (WEE1): A (0% ≤ substrate protein remaining % ≤80%)
IKZF1 substrate protein remaining % (IKZF1): B (80%< substrate protein remaining % ≤100%)
IKZF2 substrate protein remaining % (IKZF2): A (0% ≤ substrate protein remaining % ≤80%)
IKZF3 substrate protein remaining % (IKZF3): B (80%< substrate protein remaining % ≤100%)
CK1α substrate protein remaining % (CK1α): B (80%< substrate protein remaining % ≤100%)
GSPT1 substrate protein remaining % (GSPT1): B (80%< substrate protein remaining % ≤100%)
